Measurements published in patent US11849727B2, “Synergistic formulations for control and repellency of biting arthropods” (Bedoukian Research, Inc., priority 2013, dated 2023).

Test system: Aedes aegypti
Test: Arm in Cage testing on human subjects (modified WHO - Nigel Hill protocol), dose response
Format: in vivo
Details: individual component, LDP Line dose response curve
Protocol: A Modified WHO-[…] protocol was used for Dose Response curve generation. Three concurrent repetitions were conducted with 4 subjects (2 male, 2 female). Approximately 60 non blood-fed, female Aedes aegypti mosquitoes were placed in a 12''×12''×12'' (28316.85 cm^3) plexi and screen cage. […] Arms were inserted into the first cage for 30 seconds, with number of landings (with intent to bite) recorded at the end of the time interval. The same procedure was used for the 2nd and 3rd cage in succession. Control arm was inserted first, followed by the opposite arm treated with ethanol only (as a treatment control). The 'treatment arm' is then treated with dose 1 and inserted, then dose 2, dose 3, and so on. After complete protection was achieved, control arm was reinserted to verify continued activity. Percent repellency was calculated by utilizing the formula [{(C-T)/C}*100]. Where C=the number of mosquitoes landing with intent to bite on the ethanol only treated arm, and T=the number of mosquitoes landing with intent to bite on the 'repellent' treated arm. LDP Line® software (Bakr, E 2007) was used to determine ED50 (effective dose to repel 50%) and compare materials. […] Significance was determined by the use of 95% confidence intervals. […]

CCN(CC)C(=O)c1cccc(C)c1 [DEET, N,N-Diethyl-m-toluamide]
percent dose required to generate an ED25 (25% repellency): 0.035%
